Assay results reported in patent publication US20260207572A1, “METHODS AND COMPOSITIONS FOR TREATMENT OF SUBJECTS WITH HEPATIC IMPAIRMENTS” (ELEVAR THERAPEUTICS, INC., priority 2022, published 2026).
Like-named read-outs stand apart in the source and are kept apart here.

Assay: Phase 1 single-dose plasma pharmacokinetics in subjects with normal hepatic function, mild or moderate hepatic impairment
Format: in vivo, human
Settings: for Plasma concentration, Arithmetic Mean / Plasma concentration, Median: Predose; for AUC(0-t) / AUC(0-inf) / Cmax / Vd/F / half-life / Tmax / concentration at 0.5 h / concentration at 1 h / concentration at 2 h / concentration at 3 h / concentration at 4 h / concentration at 6 h / concentration at 8 h / concentration at 12 h / concentration at 16 h / concentration at 24 h / concentration at 36 h / concentration at 48 h: human, plasma, 200 mg
Description: Patients: 27 subjects were enrolled within the following groups based on their Child-Pugh (CP) classification score: • Group 1: Matched-control healthy subjects with normal hepatic function; • Group 2: Subjects with mild hepatic impairment (CP Class A, score of 5 or 6); • Group 3: Subjects with moderate hepatic impairment (CP Class B, score of 7 to 9).
A parallel design strategy was adopted for the hepatic impairment groups. Each matched-control healthy subject (Group 1) was enrolled following the enrollment of a mild and/or moderate hepatic impairment subject and was demographically matched by age (±10 years), BMI (±20%), and sex to the enrolled hepatic impairment subject(s). Subjects with normal hepatic function were not matched to more than 1 hepatically-impaired subject within an impairment group; however, subjects with normal hepatic function could be matched to 1 subject from more than 1 hepatic impairment group.
Other noncompartmental parameters could be reported.
The paired t-test was performed separately for each hepatic impairment group and the corresponding matched healthy controls. Estimates of geometric mean ratios in primary PK parameters between each level of impaired hepatic function versus the matched healthy controls were presented along with the corresponding 90% confidence intervals (CIs) for the geometric mean ratios. The p-value assessing the difference between each impairment group and the healthy control group was presented.
The PK analysis was conducted by Covance Early Clinical Biometrics using WinNonlin Version 8.1.

[1] = Mild Hepatic Impairment, 200 mg single oral dose
[2] = Moderate Hepatic Impairment, 200 mg single oral dose
[3] = Normal Hepatic Function, 200 mg single oral dose
[4] = po, Mild Hepatic Impairment, 200 mg single oral dose, read-out: Plasma concentration, Arithmetic Mean
[5] = po, Mild Hepatic Impairment, 200 mg single oral dose, read-out: Plasma concentration, Geometric Mean
[6] = po, Mild Hepatic Impairment, 200 mg single oral dose, read-out: Plasma concentration, Median

N#CC1(c2ccc(NC(=O)c3cccnc3NCc3ccncc3)cc2)CCCC1 [Rivoceranib, N-[4-(1-cyanocyclopentyl)phenyl]-2-{[(pyridin-4-yl)methyl]amino} pyridine-3-carboxamide]
AUC0-∞, Geometric Mean [1]: 2.30866 µg·h/mL | CL/F, Arithmetic Mean [1]: 103.183 L/h | CL/F, Geometric Mean [1]: 86.630 L/h | CL/F, Median [1]: 93.423 L/h | Plasma concentration, Arithmetic Mean [1]: 0 µg/mL | Plasma concentration, Median [1]: 0 µg/mL | CL/F, Arithmetic Mean [2]: 89.904 L/h | CL/F, Geometric Mean [2]: 81.335 L/h | CL/F, Median [2]: 77.251 L/h | Plasma concentration, Arithmetic Mean [2]: 0 µg/mL | Plasma concentration, Median [2]: 0 µg/mL | CL/F, Arithmetic Mean [3]: 68.404 L/h | CL/F, Geometric Mean [3]: 65.546 L/h | CL/F, Median [3]: 69.489 L/h | Plasma concentration, Arithmetic Mean [3]: 0 µg/mL | Plasma concentration, Median [3]: 0 µg/mL | AUC(0-t) (oral, Mild vs Normal: Mild hepatic impairment, paired analysis, read-out: AUC0-t, Geometric Least Squares Mean, Test): 2.08 µg·h/mL | AUC(0-inf) (oral, Mild vs Normal: Mild hepatic impairment, paired analysis, read-out: AUC0-∞, Geometric Least Squares Mean, Test): 2.52 µg·h/mL | Cmax (oral, Mild vs Normal: Mild hepatic impairment, paired analysis, read-out: Cmax, Geometric Least Squares Mean, Test): 0.182 µg/mL | AUC(0-t) (oral, Mild vs Normal: matched Normal hepatic function, paired analysis, read-out: AUC0-t, Geometric Least Squares Mean, Reference): 2.82 µg·h/mL | AUC(0-inf) (oral, Mild vs Normal: matched Normal hepatic function, paired analysis, read-out: AUC0-∞, Geometric Least Squares Mean, Reference): 3.02 µg·h/mL | Cmax (oral, Mild vs Normal: matched Normal hepatic function, paired analysis, read-out: Cmax, Geometric Least Squares Mean, Reference): 0.303 µg/mL | AUC(0-t) (oral, Moderate vs Normal: Moderate hepatic impairment, paired analysis, read-out: AUC0-t, Geometric Least Squares Mean, Test): 2.38 µg·h/mL | AUC(0-inf) (oral, Moderate vs Normal: Moderate hepatic impairment, paired analysis, read-out: AUC0-∞, Geometric Least Squares Mean, Test): 2.43 µg·h/mL | Cmax (oral, Moderate vs Normal: Moderate hepatic impairment, paired analysis, read-out: Cmax, Geometric Least Squares Mean, Test): 0.21 µg/mL | AUC(0-t) (oral, Moderate vs Normal: matched Normal hepatic function, paired analysis, read-out: AUC0-t, Geometric Least Squares Mean, Reference): 2.55 µg·h/mL | AUC(0-inf) (oral, Moderate vs Normal: matched Normal hepatic function, paired analysis, read-out: AUC0-∞, Geometric Least Squares Mean, Reference): 2.98 µg·h/mL | Cmax (oral, Moderate vs Normal: matched Normal hepatic function, paired analysis, read-out: Cmax, Geometric Least Squares Mean, Reference): 0.247 µg/mL | AUC(0-t) (po, Mild Hepatic Impairment, 200 mg single oral dose, read-out: AUC0-t, Arithmetic Mean): 2.55 µg·h/mL | AUC(0-t) (po, Mild Hepatic Impairment, 200 mg single oral dose, read-out: AUC0-t, Geometric Mean): 2.07 µg·h/mL | AUC(0-t) (po, Mild Hepatic Impairment, 200 mg single oral dose, read-out: AUC0-t, Median): 1.94 µg·h/mL | AUC(0-inf) (po, Mild Hepatic Impairment, 200 mg single oral dose, read-out: AUC0-∞, Arithmetic Mean): 2.84 µg·h/mL | AUC(0-inf) (po, Mild Hepatic Impairment, 200 mg single oral dose, read-out: AUC0-∞, Geometric Mean): 2.31 µg·h/mL | AUC(0-inf) (po, Mild Hepatic Impairment, 200 mg single oral dose, read-out: AUC0-∞, Median): 2.14 µg·h/mL | Cmax (po, Mild Hepatic Impairment, 200 mg single oral dose, read-out: Cmax, Arithmetic Mean): 0.291 µg/mL | Cmax (po, Mild Hepatic Impairment, 200 mg single oral dose, read-out: Cmax, Geometric Mean): 0.182 µg/mL | Cmax (po, Mild Hepatic Impairment, 200 mg single oral dose, read-out: Cmax, Median): 0.202 µg/mL | Vd/F (po, Mild Hepatic Impairment, 200 mg single oral dose, read-out: VZ/F, Arithmetic Mean): 1830 L | Vd/F (po, Mild Hepatic Impairment, 200 mg single oral dose, read-out: VZ/F, Geometric Mean): 1400 L | Vd/F (po, Mild Hepatic Impairment, 200 mg single oral dose, read-out: VZ/F, Median): 1100 L | half-life (po, Mild Hepatic Impairment, 200 mg single oral dose, read-out: t1/2, Arithmetic Mean (converted)): 13.3 ± 5.58 h | half-life (po, Mild Hepatic Impairment, 200 mg single oral dose, read-out: t1/2, Geometric Mean (converted)): 12.4 h | half-life (po, Mild Hepatic Impairment, 200 mg single oral dose, read-out: t1/2, Median (converted)): 12.3 h | Tmax (po, Mild Hepatic Impairment, 200 mg single oral dose, read-out: tmax, Arithmetic Mean): 3.6 h | Tmax (po, Mild Hepatic Impairment, 200 mg single oral dose, read-out: tmax, Geometric Mean): 2.8 h | Tmax (po, Mild Hepatic Impairment, 200 mg single oral dose, read-out: tmax, Median): 2.5 h | concentration at 0.5 h [4]: 0.0415 µg/mL | concentration at 0.5 h [5]: 0.0295 µg/mL | concentration at 0.5 h [6]: 0.0302 µg/mL | concentration at 1 h [4]: 0.178 µg/mL | concentration at 1 h [5]: 0.112 µg/mL | concentration at 1 h [6]: 0.149 µg/mL | concentration at 2 h [4]: 0.279 µg/mL | concentration at 2 h [5]: 0.165 µg/mL | concentration at 2 h [6]: 0.194 µg/mL | concentration at 3 h [4]: 0.22 µg/mL | concentration at 3 h [5]: 0.138 µg/mL | concentration at 3 h [6]: 0.155 µg/mL | concentration at 4 h [4]: 0.164 µg/mL | concentration at 4 h [5]: 0.112 µg/mL | concentration at 4 h [6]: 0.0958 µg/mL | concentration at 6 h [4]: 0.122 µg/mL | concentration at 6 h [5]: 0.0954 µg/mL | concentration at 6 h [6]: 0.0913 µg/mL | concentration at 8 h [4]: 0.096 µg/mL | concentration at 8 h [5]: 0.0778 µg/mL | concentration at 8 h [6]: 0.0685 µg/mL | concentration at 12 h [4]: 0.0666 µg/mL | concentration at 12 h [5]: 0.0549 µg/mL | concentration at 12 h [6]: 0.0439 µg/mL | concentration at 16 h [4]: 0.0543 µg/mL | concentration at 16 h [5]: 0.0453 µg/mL | concentration at 16 h [6]: 0.0396 µg/mL | concentration at 24 h [4]: 0.0345 µg/mL | concentration at 24 h [5]: 0.029 µg/mL | concentration at 24 h [6]: 0.026 µg/mL | concentration at 36 h [4]: 0.0161 µg/mL | concentration at 36 h [5]: 0.0152 µg/mL | concentration at 36 h [6]: 0.0138 µg/mL | concentration at 48 h [4]: 0.0085 µg/mL | concentration at 48 h [5]: 0.00997 µg/mL | concentration at 48 h [6]: 0.00726 µg/mL | AUC(0-t) (po, Moderate Hepatic Impairment, 200 mg single oral dose, read-out: AUC0-t, Arithmetic Mean): 2.59 µg·h/mL | AUC(0-t) (po, Moderate Hepatic Impairment, 200 mg single oral dose, read-out: AUC0-t, Geometric Mean): 2.38 µg·h/mL | AUC(0-t) (po, Moderate Hepatic Impairment, 200 mg single oral dose, read-out: AUC0-t, Median): 2.45 µg·h/mL | AUC(0-inf) (po, Moderate Hepatic Impairment, 200 mg single oral dose, read-out: AUC0-∞, Arithmetic Mean): 2.66 µg·h/mL | AUC(0-inf) (po, Moderate Hepatic Impairment, 200 mg single oral dose, read-out: AUC0-∞, Geometric Mean): 2.46 µg·h/mL | AUC(0-inf) (po, Moderate Hepatic Impairment, 200 mg single oral dose, read-out: AUC0-∞, Median): 2.59 µg·h/mL | Cmax (po, Moderate Hepatic Impairment, 200 mg single oral dose, read-out: Cmax, Arithmetic Mean): 0.239 µg/mL | Cmax (po, Moderate Hepatic Impairment, 200 mg single oral dose, read-out: Cmax, Geometric Mean): 0.21 µg/mL | Cmax (po, Moderate Hepatic Impairment, 200 mg single oral dose, read-out: Cmax, Median): 0.18 µg/mL | Vd/F (po, Moderate Hepatic Impairment, 200 mg single oral dose, read-out: VZ/F, Arithmetic Mean): 2250 L | Vd/F (po, Moderate Hepatic Impairment, 200 mg single oral dose, read-out: VZ/F, Geometric Mean): 2020 L | Vd/F (po, Moderate Hepatic Impairment, 200 mg single oral dose, read-out: VZ/F, Median): 2090 L | half-life (po, Moderate Hepatic Impairment, 200 mg single oral dose, read-out: t1/2, Arithmetic Mean (converted)): 18.7 ± 3.97 h
